The source of these data is patent publication US20230330254A1 (Regeneron Pharmaceuticals, Inc., priority 2022, published 2023).

For data set [1], the target named is T1, human GLP1R (Homo sapiens, UniProt P43220). In words: Luciferase reporter assay, HEK293/CRE-Luc/hGLP1R (Example 17). Type of data set: cell-based. Further details: engineered to express full-length human GLP1R, cynomolgus GLP1R; expressed in transfected cells; host or cells: HEK293/CRE-Luc. To be noted: HEK293/CRE-Luc/hGLP1R; for EC50: payloads and linker-payloads, experiments A-E, M2361 repeated in each, read-out: EC50. An outline of the steps:
(§1)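 HEK293 cells carrying a CRE-driven firefly luciferase reporter were exposed to 3-fold serial dilutions of payloads or linker-payloads (12 points, 0.2% DMSO final) for 4–6 h, then luminescence was read. EC50 came from a four-parameter logistic fit; S/N is top RLU over untreated wells, and relative potency and S/N are referenced to M2361.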

Another data set concerns HEK293/CRE-Luc cells. Nature of the data set: Luciferase reporter assay, HEK293/CRE-Luc cells without GLP1R (Example 17). Type of data set: cell-based, human. An outline of the steps: as §1
Background: In a reporter assay the amount or activity of a reporter protein is the signal.

A further data set deals with hERG potassium channels (Homo sapiens, UniProt Q12809). Nature of the data set: cell-based. How it is done:
For the assay, CHO cells stably expressing hERG potassium channels were plated and cultured for at least 2 days in a humidified and air-controlled (5% CO2) incubator at 37° C. prior to use in electrophysiological experiments. Cells were then harvested using TrypLE and resuspended in physiological solution (10 mM HEPES, 80 mM NaCl, 4 mM KCl, 2 mM CaCl2, 1 mM MgCl2, 5 mM Glucose, 60 mM NM DG, pH 7.4). Test compounds were dissolved in water to obtain stock solutions for different test concentrations. […] One 40 μL addition of the vehicle was applied, followed by a 300s baseline recording period. […] Recordings were required to pass quality control over the duration of the recording or the well was abandoned, and the compound was retested, all automatically set by PatchControl. […] A minimum of 2 replicates per concentration were obtained. […] Curve-fitting and IC50 value calculations were performed by GraphPad Prism 5.0.

Data set [2] concerns the target T1, human GLP1R. In words: Human GLP1R cAMP accumulation assay. In kind it is cell-based. Further details: HEK293 cells over-expressing full length human GLP-1R were utilized; expressed in transfected cells; host or cells: HEK293 (HEK293/hGLP1R). To be noted: HEK293/hGLP1R cells; Table 4; read-out: cAMP EC50. An outline of the steps:
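cAMP accumulation measured after 30 min at 23° C, with 500 μM IBMX in HEPES-buffered HBSS plus 0.1% BSA, in HEK293 cells expressing full-length hGLP-1R. Levels read by D2-cAMP/antibody immunoassay via standard curve, scaled between low and high controls. EC50 fitted four-parameter over a 10-point curve.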
(In general: cAMP levels reflect the balance of adenylyl cyclase and phosphodiesterase activity.)

Data set [3] addresses T1, human GLP1R. In words: b-arrestin 2 recruitment assay, PathHunter CHO/b-arrestin 2/hGLP1R cells. In kind it is cell-based. The note with it: read-out: CHO/b-arrestin 2/hGLP1R Emax (% GLP-1). The procedure:
The b-arrestin 2 recruitment assay was performed following manufacter's instructions (Eurofins DiscoverX, #93-0300E2CP0M), with minor modifications. […] Serial dilutions of free payload and LP were performed in 100% DMSO, followed by 1:100 dilution in assay media. Test articles were added to cells (1:5 dilution) with the last well in each serial dilution series serving as a blank control containing only assay media for antibodies and ATLs or assay media with 0.2% DMSO for payload and LP. After a 90-minute incubation at 37° C., PathHunter Detection Reagent (Eurofins DiscoverX, #93-0300E2CP0M) was added to the wells followed by a 1-hour incubation at room temperature. RLUs were measured on EnVision Plate Reader (Perkin Elmer).
(§2) EC50 values for luminescence assays were determined using a four-parameter logistic equation over a 12-point dose response curve (GraphPad Prism).
(Activated receptors often draw arrestin, which recruitment assays turn into a signal.)

Data set [4] addresses T1, human GLP1R. In words: CRE-Luc cAMP reporter assay, HEK293/CRE-Luc/hGLP1R (Example 24). Type of data set: cell-based. Further details: engineered to express full-length human GLP1R, cynomolgus GLP1R; expressed in transfected cells; host or cells: HEK293/CRE-Luc. To be noted: HEK293, read-out: HEK293/CRE-Luc/hGLP1R Emax (% GLP-1).
From the text: To test the activity of GLP1R agonist payloads, GLP1R agonist linker-payloads (LPs), and anti-GLP1R antibody-tethered ligands (ATLs) of the invention, a cell-based cAMP responsive luciferase reporter assay was developed. To generate the assay cell line, the firefly luciferase gene was placed under the control of a cAMP response element (CRE) located upstream of a minimal promoter and transfected into HEK293 cells and referred to herein as HEK293/CRE-Luc cells. HEK293/CRE-Luc cells were then engineered to express full-length human GLP1R (HEK293/CRE-Luc/hGLP1R), cynomolgus GLP1R (HEK293/CRE-Luc/mfGLP1R), or mouse GLP1R (HEK293/CRE-Luc/mGLP1R).
Serial dilutions of free payload and linker payloads (LP) were performed in 100% DMSO (ATCC, #4-X-5), followed by 1:100 dilution in assay media. Test articles were added to cells (1:5 dilution) with the last well in each serial dilution series serving as a blank control containing only assay media for antibodies and ATLs or assay media with 0.2% DMSO for payloads and LPs. After a 5-hour incubation at 37° C., luciferase activity was determined by addition of ONE-Glo reagent (Promega, #E6130) followed by measurement of relative light units (RLUs) on an EnVision Plate Reader (Perkin Elmer).
as §2

Data set [5] in a line: Water solubility of linker-payload. In kind it is physicochemical.
Setting [6] is: highest RLU / RLU of untreated wells.
Setting [7] is: relative to M2361 of the same experiment.
Where [8] appears, read: HEK293/CRE-Luc cells without hGLP1R, payloads and linker-payloads.
Setting [9] is: ATDCs and references (Table 27).

The IC50 is the concentration at which inhibition is half-maximal. The low end stands for greater potency in that assay, the high end for weaker potency in that assay. A word on the solubility: it is how much of the substance goes into solution per volume. Read a low solubility as little dissolved substance.

SMILES strings stand for the structures. Where “and” joins values, the source holds several entries; their conditions need not be identical. Equal values may be shown once. Read-outs that look alike come from different tables or passages of the source. *1 amine or outer side, *2 acyl side, *3 side chain or, on linkers, in order; H or OH if unused. Where a SMILES comes first, the peptide text is derived from it. Side-chain parts run from the residue outwards. [ ]: non-standard residue; d: D form. The star is where a group is joined. Bip(2'-Et-4'-O(CH2)4NH2) = CCc1cc(OCCCCN[*:3])ccc1-c1ccc(C[C@H](N[*:1])C(=O)[*:2])cc1; Bip(2'-Et,4'-O(CH2)4N3) = CCc1cc(OCCCCN=[N+]=[N-])ccc1-c1ccc(C[C@H](N)C(=O)O)cc1; Malonyl(2,2-Me2,histaminyl) = CC(C)(C(=O)NCCc1cnc[nH]1)C(=O)*; Nva(5-(3,5-Me2Ph)) = Cc1cc(C)cc(CCC[C@H](N)C(=O)O)c1; Ala(1H-tetrazol-5-yl) = N[C@@H](Cc1nnn[nH]1)C(=O)O; PEG8 = NCCOCCOCCOCCOCCOCCOCCOCCOCCC(=O)O; αMePhe(2-F) = C[C@](N)(Cc1ccccc1F)C(=O)O; DBCO = C1#Cc2ccccc2N(*)Cc2ccccc21; Suc = O=C(CCC(=O)[*:2])[*:1] Bounds are passed on as bounds.

T1 sequence (P43220 24-463): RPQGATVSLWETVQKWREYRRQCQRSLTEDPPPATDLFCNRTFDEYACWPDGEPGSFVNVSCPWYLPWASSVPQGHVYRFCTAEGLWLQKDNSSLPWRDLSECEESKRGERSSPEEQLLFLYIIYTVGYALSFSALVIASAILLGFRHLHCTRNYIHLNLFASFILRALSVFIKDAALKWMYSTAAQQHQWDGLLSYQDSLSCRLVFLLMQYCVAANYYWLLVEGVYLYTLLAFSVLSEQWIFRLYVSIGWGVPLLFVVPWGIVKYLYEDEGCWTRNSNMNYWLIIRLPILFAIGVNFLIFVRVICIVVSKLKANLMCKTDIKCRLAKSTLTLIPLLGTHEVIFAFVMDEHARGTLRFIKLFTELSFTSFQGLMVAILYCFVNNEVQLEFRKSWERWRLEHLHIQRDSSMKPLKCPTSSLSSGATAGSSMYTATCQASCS
Sequence of hERG potassium channels (Q12809 whole entry): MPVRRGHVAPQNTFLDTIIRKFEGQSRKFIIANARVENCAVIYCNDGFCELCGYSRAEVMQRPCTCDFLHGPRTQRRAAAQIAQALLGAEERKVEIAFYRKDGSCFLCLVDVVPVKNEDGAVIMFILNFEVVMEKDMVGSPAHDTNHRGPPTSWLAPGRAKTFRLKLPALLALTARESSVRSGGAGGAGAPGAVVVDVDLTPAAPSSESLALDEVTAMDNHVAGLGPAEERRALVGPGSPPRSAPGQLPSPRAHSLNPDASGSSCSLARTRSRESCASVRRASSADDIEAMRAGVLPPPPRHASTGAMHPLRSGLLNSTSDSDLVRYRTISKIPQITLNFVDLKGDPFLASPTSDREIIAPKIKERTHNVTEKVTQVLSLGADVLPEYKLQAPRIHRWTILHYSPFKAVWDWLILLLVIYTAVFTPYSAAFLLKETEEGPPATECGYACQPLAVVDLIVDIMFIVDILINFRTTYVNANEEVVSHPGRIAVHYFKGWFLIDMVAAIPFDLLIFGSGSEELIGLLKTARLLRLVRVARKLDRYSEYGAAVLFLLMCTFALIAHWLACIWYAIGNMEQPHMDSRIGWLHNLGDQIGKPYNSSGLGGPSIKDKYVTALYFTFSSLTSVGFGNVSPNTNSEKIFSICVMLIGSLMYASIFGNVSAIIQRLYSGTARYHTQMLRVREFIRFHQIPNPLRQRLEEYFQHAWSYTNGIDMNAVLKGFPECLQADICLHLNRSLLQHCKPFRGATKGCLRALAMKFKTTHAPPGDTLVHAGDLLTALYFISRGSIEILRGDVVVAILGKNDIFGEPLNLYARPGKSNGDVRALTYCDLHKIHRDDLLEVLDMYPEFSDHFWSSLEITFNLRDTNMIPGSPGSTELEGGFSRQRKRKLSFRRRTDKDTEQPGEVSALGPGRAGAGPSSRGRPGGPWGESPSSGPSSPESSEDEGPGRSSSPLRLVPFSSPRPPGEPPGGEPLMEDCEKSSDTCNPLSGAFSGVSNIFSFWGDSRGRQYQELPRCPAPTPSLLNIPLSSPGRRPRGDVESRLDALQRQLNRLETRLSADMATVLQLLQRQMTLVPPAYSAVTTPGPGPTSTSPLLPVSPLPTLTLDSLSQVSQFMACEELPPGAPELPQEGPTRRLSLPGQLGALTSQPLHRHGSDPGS

Regarding `CCc1cc(OCCCCn2cc(COCCOCCOCCOCCNC(=O)COC3C#CCCCCC3)nn2)ccc1-c1ccc(C[C@H](NC(=O)[C@H](CC(=O)O)NC(=O)[C@H](CO)NC(=O)[C@@H](NC(=O)[C@](C)(Cc2ccccc2F)NC(=O)[C@@H](NC(=O)CNC(=O)[C@H](Cc2nn[nH]n2)NC(=O)C(C)(C)C(=O)NCCc2cnc[nH]2)[C@@H](C)O)[C@@H](C)O)C(=O)N[C@@H](CCCc2cc(C)cc(C)c2)C(N)=O)cc1` (stereo partly shown) [LP10, COT-PEG4-triazole-P8], the S/N is 51.7 at human GLP1R [1] (setting [6]) and 1.1 with HEK293/CRE-Luc cells (setting [8]). In addition, the EC50 on human GLP1R [1] is 0.0391 nM; in the data set with HEK293/CRE-Luc cells (HEK293/CRE-Luc cells without hGLP1R, payloads and linker-payloads, read-out: EC50), > 200 nM; at human GLP1R [2], 0.982 nM. In addition, the “Relative Potency (% M2361 EC50)” value at human GLP1R [1] (setting [7]) is listed as 13.6%. On human GLP1R [1] (setting [7]), the “Relative Signal:Noise (% M2361)” value was found to be 78.7%. The IC50 against hERG potassium channels is > 100000 nM.

Take `CCc1cc(OCCCCN=[N+]=[N-])ccc1-c1ccc(C[C@H](NC(=O)[C@H](CC(=O)O)NC(=O)[C@H](CO)NC(=O)[C@@H](NC(=O)[C@](C)(Cc2ccccc2F)NC(=O)[C@@H](NC(=O)CNC(=O)[C@H](Cc2nn[nH]n2)NC(=O)C(C)(C)C(=O)NCCc2cnc[nH]2)[C@@H](C)O)[C@@H](C)O)C(=O)N[C@@H](CCCc2cc(C)cc(C)c2)C(N)=O)cc1` [M2361] ({Malonyl(2,2-Me2,histaminyl)}-[Ala(1H-tetrazol-5-yl)]GT[αMePhe(2-F)]TSD[Bip(2'-Et,4'-O(CH2)4N3)][Nva(5-(3,5-Me2Ph))]-NH2): the “Relative Potency (% M2361 EC50)” value on human GLP1R [1] (setting [9]) and on human GLP1R [1] (setting [7]) was 100.0% throughout. Moreover, the “Relative Signal:Noise (% M2361)” value on human GLP1R [1] (setting [9]) and at human GLP1R [1] (setting [7]) was 100.0% each time. In addition, the S/N at human GLP1R [1] (setting [9]) is 64.3; in the data set on HEK293/CRE-Luc cells (HEK293/CRE-Luc cells without hGLP1R, ATDCs and references (Table 27)), 1.3; with HEK293/CRE-Luc cells (setting [8]), 1.5 and 1.3. Besides, the Emax at human GLP1R [3] was 107%; at human GLP1R [4], 95.8%. Besides, the EC50 with HEK293/CRE-Luc cells (HEK293/CRE-Luc cells without hGLP1R, ATDCs and references (Table 27), read-out: EC50) was > 20 nM; with HEK293/CRE-Luc cells (Table 28, reporter cells without GLP1R, read-out: HEK293/CRE-Luc EC50), > 200 nM; with HEK293/CRE-Luc cells (Table 29, reporter cells without GLP1R, read-out: HEK293/CRE-Luc EC50) it was > 30 nM.

`CCc1cc(OCCCCNC(=O)CCOCCOCCOCCOCCOCCOCCOCCOCCNC(=O)CCC(=O)N2Cc3ccccc3C#Cc3ccccc32)ccc1-c1ccc(C[C@H](NC(=O)[C@H](CC(=O)O)NC(=O)[C@H](CO)NC(=O)[C@@H](NC(=O)[C@](C)(Cc2ccccc2F)NC(=O)[C@@H](NC(=O)CNC(=O)[C@H](Cc2nn[nH]n2)NC(=O)C(C)(C)C(=O)NCCc2cnc[nH]2)[C@@H](C)O)[C@@H](C)O)C(=O)N[C@@H](CCCc2cc(C)cc(C)c2)C(N)=O)cc1` [LP2, DIBAC-suc-PEG8-P9] ({Malonyl(2,2-Me2,histaminyl)}-[Ala(1H-tetrazol-5-yl)]GT[αMePhe(2-F)]TSD[Bip(2'-Et-4'-O(CH2)4NH2)]([PEG8-Suc-DBCO])[Nva(5-(3,5-Me2Ph))]-NH2): at human GLP1R [1] (setting [6]), the S/N stood at 323.1. At human GLP1R [1], the EC50 stood at 0.0742 nM. Also, on human GLP1R [1] (setting [7]), the “Relative Potency (% M2361 EC50)” value came to 36.8% and the “Relative Signal:Noise (% M2361)” value came out at 137.0%. Also, the solubility in data set [5] is ≥ 0.06 µM.
